Measured values as given in patent US20170197935A1, “INHIBITORS OF DNA GYRASE FOR THE TREATMENT OF BACTERIAL INFECTIONS” (Vitas Pharma Research Private Limited, priority 2012, published 2017).
Converted amounts (≈) assume the structure as drawn. Where two headings read alike, the source gives them in different places.

How the values were obtained:
Format in all cases: cell-based
[1] = system: Staphylococcus aureus (ATCC 29213); test: MIC by microbroth dilution, Staphylococcus aureus ATCC 29213; settings: ATCC29213
Method: (§1) Shown below are the microbiological activities of representative compounds of Formula I of the invention. The compounds were tested by the microbroth dilution method (National committee for Clinical Laboratory Standards, 2011, […]-08) and the Minimum Inhibitory Concentration (MIC) was determined.

[2] = system: Methicillin resistant Staphylococcus aureus (ATCC 33591); test: MIC by microbroth dilution, MRSA ATCC 33591
Method: (§2) Shown below are the microbiological activities of representative compounds of Formula I of the invention. The compounds were tested by the microbroth dilution method (National committee for Clinical Laboratory Standards, 2011, M07-08) and the Minimum Inhibitory Concentration (MIC) was determined.
(§3) Analysis of microbiological activity of compounds shown below are the microbiological activities of representative compounds of Formula II of the invention. The compounds were tested by the microbroth dilution method as per the reference in Example 1.

[3] = system: Streptococcus pneumoniae (ATCC 6301); test: MIC by microbroth dilution, Streptococcus pneumoniae ATCC 6301; settings: ATCC6301
Method: as §1

[4] = system: Enterococcus faecalis (ATCC 29212); test: MIC by microbroth dilution, Enterococcus faecalis ATCC 29212; settings: ATCC29212
Method: as §1

[5] = system: Moraxella catarrhalis (ATCC 8176); test: MIC by microbroth dilution, Moraxella catarrhalis ATCC 8176; settings: ATCC8176
Method: as §1

E. coli (ATCC 25922) = test: MIC by microbroth dilution, E. coli ATCC 25922; settings: Escherichia coli
Method: as §2, §3

[6] = system: K. pneumoniae (ATCC 700603); test: MIC by microbroth dilution, K. pneumoniae ATCC 700603; settings: Klebsiella pneumoniae, ATCC700603, Formula I compounds
Method: as §2, §3

[7] = ATCC33591, Formula I compounds, read-out: MIC Methicillin resistant Staphylococcus aureus (ATCC 33591)
[8] = ATCC25922, Formula I compounds, read-out: MIC E. coli (ATCC 25922)
[9] = ATCC25922, Formula II compounds, read-out: Minimum Inhibitory Concentration (MIC) E. coli ATCC 25922

SMILES	MIC [1] [µg/mL]	MIC [2, 7] [µg/mL]	MIC [3] [µg/mL]	MIC [4] [µg/mL]	MIC [5] [µg/mL]	MIC (E. coli (ATCC 25922); [8]) [µg/mL]	MIC [6] [µg/mL]	MIC (E. coli (ATCC 25922); [9]) [µg/mL]	MIC ([2]; Formula II compounds, read-out: Minimum Inhibitory Concentration (MIC) MRSA ATCC 33591) [µg/mL]
COc1ccc2ncc(C#N)c(CCN3CCC(NCc4ccc([N+](=O)[O-])o4)CC3)c2c1 [VT-03-00051]	2 (≈ 4.59 µM)	4 (≈ 9.19 µM)	> 4	4 (≈ 9.19 µM)	2 (≈ 4.59 µM)	> 32	> 16	–	–
COc1ccc2ncc(C#N)c(CCN3CCC(NCc4cc(OC)c(O)c([N+](=O)[O-])c4)CC3)c2c1 [VT-03-00060]	> 4	> 4	–	–	> 32	> 32	–	–	–
COc1ccc2ncc(C#N)c(CCN3C4CCC3CC(NS(=O)(=O)c3ccc5ccccc5c3)C4)c2c1 (stereo not shown) [VT-03-00022]	1 (≈ 1.9 µM)	2 (≈ 3.8 µM)	2 (≈ 3.8 µM)	4 (≈ 7.6 µM)	4 (≈ 7.6 µM)	> 64	–	–	–
Cc1ccc(CNC2CCN(CCn3c(=O)cnc4ccc(C(=O)O)cc43)CC2)cc1[N+](=O)[O-] [VT-03-00124]	–	–	–	–	–	–	–	2 (≈ 4.3 µM)	–
COc1ccc2ncc(C#N)c(CCN3C4CCC3CC(NCc3cc5c(cn3)OCCO5)C4)c2c1 (stereo not shown) [VT-03-00027]	2 (≈ 4.12 µM)	4 (≈ 8.24 µM)	2 (≈ 4.12 µM)	4 (≈ 8.24 µM)	8 (≈ 16.5 µM)	> 32	–	–	–
COc1ccc2ncc(C#N)c(CCN3CCC(NCc4ccc(C)c([N+](=O)[O-])c4)(C(N)=O)CC3)c2c1 [VT-03-00083]	0.06 (≈ 0.119 µM)	0.12 (≈ 0.239 µM)	–	–	–	4 (≈ 7.96 µM)	–	–	–
COc1ccc2c(c1)c(CCN1CCC(NCc3ccc4c(c3)OCCO4)CC1)c(C#N)c(=O)n2C [VT-03-00043]	16 (≈ 32.7 µM)	> 16	–	–	–	> 32	–	–	–
COc1ccc2ncc(C#N)c(CCN3C4CCC3CC(NCc3ccc5c(c3)NC(=O)CS5)C4)c2c1 (stereo not shown) [VT-03-00026]	2 (≈ 3.89 µM)	4 (≈ 7.79 µM)	1 (≈ 1.95 µM)	8 (≈ 15.6 µM)	2 (≈ 3.89 µM)	32 (≈ 62.3 µM)	64 (≈ 125 µM)	–	–
COc1ccc2ncc(C#N)c(CCN3C[C@@H]4C[C@H]3CN4CNc3ccc4c(c3)OCCO4)c2c1 [VT-03-00028]	0.25 (≈ 0.53 µM)	0.5 (≈ 1.06 µM)	0.25 (≈ 0.53 µM)	1 (≈ 2.12 µM)	4 (≈ 8.48 µM)	> 32	> 32	–	–
COc1ccc2c(c1)c(CCN1CCC(NCc3ccc4c(c3)NC(=O)CO4)CC1)c(C#N)c(=O)n2C [VT-03-00042]	> 16	> 16	–	–	–	> 32	–	–	–
COc1ccc2ncc(C#N)c(CCN3C4CCC3CC(NCc3ccc5c(c3)OCCO5)C4)c2c1 (stereo not shown) [VT-03-00021a]	≤ 0.03	0.06 (≈ 0.124 µM)	0.12 (≈ 0.248 µM)	2 (≈ 4.13 µM)	2 (≈ 4.13 µM)	16 (≈ 33 µM)	–	–	–
COc1ccc2ncc(=O)n(CCN3CCC(NCc4ccc([N+](=O)[O-])c(C)c4)CC3)c2c1 [VT-03-00067]	0.12 (≈ 0.266 µM)	0.5 (≈ 1.11 µM)	0.25 (≈ 0.554 µM)	–	2 (≈ 4.43 µM)	16 (≈ 35.4 µM)	32 (≈ 70.9 µM)	–	–
COc1ccc2ncc(C#N)c(CCN3[C@@H]4CC[C@H]3CC(NCc3cc5c(c([N+](=O)[O-])c3)OCO5)C4)c2c1 (stereo partly shown) [VT-03-00070]	> 4	> 4	–	–	–	> 4	–	–	–
COc1ccc2ncc(=O)n(CCN3CCC(NCc4ccc(C)c([N+](=O)[O-])c4)CC3)c2n1 [VT-03-00125]	–	–	–	–	–	–	–	32 (≈ 70.7 µM)	> 4
COc1ccc2ncc(C#N)c(CCN3C4CCC3CC(NCc3ccc5c(c3)NCCS5)C4)c2c1 (stereo not shown) [VT-03-00026a]	1 (≈ 2 µM)	2 (≈ 4 µM)	2 (≈ 4 µM)	8 (≈ 16 µM)	4 (≈ 8.01 µM)	16 (≈ 32 µM)	–	–	–
COc1ccc2ncc(C#N)c(CCN3[C@@H]4CC[C@H]3CC(NCc3ccc(C)c([N+](=O)[O-])c3)C4)c2c1 (stereo partly shown) [VT-03-00069]	> 4	> 4	–	–	–	> 4	–	–	–
COc1ccc2ncc(C#N)c(CCN3CC(CNCc4ccc(C)c([N+](=O)[O-])c4)C3)c2c1 [VT-03-00084]	0.5 (≈ 1.12 µM)	0.5 (≈ 1.12 µM)	0.25 (≈ 0.561 µM)	2 (≈ 4.49 µM)	2 (≈ 4.49 µM)	8 (≈ 18 µM)	–	–	–
COc1ccc2ncc(C#N)c(CCN3[C@@H]4CC[C@H]3CC(NCc3ccc([N+](=O)[O-])s3)C4)c2c1 (stereo partly shown) [VT-03-00074]	1 (≈ 2.09 µM)	2 (≈ 4.19 µM)	2 (≈ 4.19 µM)	8 (≈ 16.8 µM)	2 (≈ 4.19 µM)	32 (≈ 67 µM)	–	–	–
COc1ccc2ncc(C#N)c(CCN3CCC(NCc4cc([N+](=O)[O-])c(C)cc4C)CC3)c2c1 [VT-03-00072]	> 4	> 4	–	–	–	> 4	–	–	–
